Values quoted from earlier work, collected in patent publication US20170252312A1, “PREPARATIONS FOR TREATMENT AND PREVENTION OF ALCOHOL FLUSHING AND ALCOHOL-INDUCED HYPERSENSITIVITY REACTIONS” (BIOHIT OYJ, priority 2014, published 2017).

How the values were obtained:
ADH enzyme = conditions: ALDH2-deficient individuals
[1] = test system: microbial acetaldehyde formation from ethanol

Cc1cn[nH]c1 [4-MP, 4-methylpyrazole]
alcohol-induced increase in salivary acetaldehyde levels (ADH enzyme): markedly decrease | flushing response to alcohol (ADH enzyme): suppressed also significantly | increase in heart rate and skin temperature and drop in diastolic blood pressure (ADH enzyme; 4-MP used before ethanol intake): disappeared

CC=O [Acetaldehyde]
histamine release (rat mast cells): enhance histamine release | histamine release (human mast cells): enhance histamine release

OC[C@@H](O)[C@H](O)[C@@H](O)CO [xylitol]
inhibition of microbial acetaldehyde formation from ethanol [1]: inhibit microbial acetaldehyde formation from ethanol
